Laboratory results reported in patent US20250122191A1, “COMPOUNDS AS BCL-2 INHIBITORS” (Fochon Biosciences, Ltd, priority 2021, published 2025).

Tests used:
RS4;11-BCL-2 G101V cells = test: Cell proliferation assay (MTS), RS4;11-BCL-2 G101V engineered cells; type: cell-based; settings: Homo sapiens, 120 h, read-out: RS4, 11 BCL2-G101V IC50
Procedure, shortened: (§1)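 Cells were plated, allowed to settle 4 h (G101V, F104L) or 24 h (D103E, D103Y), and treated with serially diluted compound (10000 down to 1.5 nM). After 120 h or 72 h respectively at 37 °C, MTS was added for 2 h and absorbance at 490 nm gave IC50 values.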

Toledo cells = test: Cell proliferation assay (MTS), Toledo cells; type: cell-based; settings: Homo sapiens, 72 h
Procedure, shortened: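 Toledo cells (RPMI-1640, 10% FBS) seeded at 30000 cells/well, rested 4 h, then exposed 72 h at 37 °C, 5% CO2 to compound at nine final concentrations, 1.5–10000 nM. Viability by MTS (2 h), absorbance at 490 nm. IC50 from the concentration-response.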

RS4;11-BCL-2 F104L cells = test: Cell proliferation assay (MTS), RS4;11-BCL-2 F104L engineered cells; type: cell-based; settings: Homo sapiens, 120 h, read-out: RS4, 11 BCL2-F104L IC50
Procedure, shortened: as §1

[1] = Pharmacokinetics assay in rats; type: in vivo; settings: male Sprague-Dawley rats, po, 5 mg/kg, plasma; for AUC(0-t) / half-life / Cmax: rat; for Cmax: read-out: Cmax/C0
Procedure: The purpose of this study was to determine the pharmacokinetics of Examples in male Sprague-Dawley rats (Supplied by Beijing Vital River Laboratory Animal Technology Co., Ltd.) following a single intravenous bolus injection at 1 mg/kg and oral gavage (PO) administration at 5 mg/kg.
Animals in Group 1 were administered with Examples by single intravenous bolus injection at 1 mg/kg, which was formulated in 10% DMSO (Sigma, Batch #LPCOS181): 60% PEG400 (Sigma, Batch #MKCH6281): 30% water, pH 5-6 at 1 mg/mL as a solution. Animals in Group 2 were administered with Examples by single oral gavage (PO) administration at 5 mg/kg, which was formulated in 10% DMSO (Sigma, Batch #BCCD6641): 60% PEG400 (Sigma, Batch #MKCL4921): 30% water at 1 mg/mL as a solution. Blood samples were collected at 0.083, 0.25, 0.5, 1, 2, 4, 8, 12 and 24 hours post-dose. Concentrations of Examples in plasma were determined by LC/MS/MS (LC: Waters UPLC; MS: Triple Quad 6500 plus).

RS4;11-BCL-2 D103E cells = test: Cell proliferation assay (MTS), RS4;11-BCL-2 D103E engineered cells; type: cell-based; settings: Homo sapiens, 72 h, read-out: RS4, 11 BCL2-D103E IC50
Procedure, shortened: as §1

Row | Compound | IC50 (RS4;11-BCL-2 G101V cells) [nM] | IC50 (RS4;11-BCL-2 F104L cells) [nM] | IC50 (RS4;11-BCL-2 D103E cells) [nM] | AUClast [1] [ng·h/mL] | Cmax/C0 [1] [ng/mL] | T1/2 [1] [h] | IC50 (Toledo cells) [nM] | AUC(0-t) [1] [ng·h/mL] | half-life [1] [h] | Cmax [1] [ng/mL]
1 | COc1nc2[nH]cc(F)c2cc1Oc1cc(N2CCC3(CC2)CC(N2CCN(Cc4ccc(F)c(F)c4)C[C@H]2c2ccccc2C(C)C)C3)ccc1C(=O)NS(=O)(=O)c1cnc(NC[C@H]2CC[C@](C)(O)CC2)c([N+](=O)[O-])c1 [Example 3, 4-(2-((R)-4-(3,4-difluorobenzyl)-2-(2-isopropylphenyl)piperazin-1-yl)-7-azaspiro[3.5]nonan-7-yl)-2-((3-fluoro-6-methoxy-1H-pyrrolo[2,3-b]pyridin-5-yl)oxy)-N-((6-((((1r,4r)-4-hydroxy-4-methylcyclohexyl)methyl)amino)-5-nitropyridin-3-yl)sulfonyl)benzamide] | 1 | 1 |  |  |  |  | 1 | 4650 | 9.21 | 382
2 | CCOc1nc2[nH]cc(F)c2cc1Oc1cc(N2CCC3(CC2)CC(N2CCN(Cc4ccc(OC)cc4)C[C@H]2c2ccccc2C(C)C)C3)ccc1C(=O)NS(=O)(=O)c1cnc(NC[C@H]2CC[C@](C)(O)CC2)c([N+](=O)[O-])c1 [Example 2, 2-((6-ethoxy-3-fluoro-1H-pyrrolo[2,3-b]pyridin-5-yl)oxy)-N-((6-((((1r,4r)-4-hydroxy-4-methylcyclohexyl)methyl)amino)-5-nitropyridin-3-yl)sulfonyl)-4-(2-((R)-2-(2-isopropylphenyl)-4-(4-methoxybenzyl)piperazin-1-yl)-7-azaspiro[3.5]nonan-7-yl)benzamide] | 1 |  | 3 |  |  |  | 1 | 1920 | 7.62 | 166
3 | CCOc1nc2[nH]cc(F)c2cc1Oc1cc(N2CCC3(CC2)CC(N2CCN(Cc4ccc(F)c(F)c4)C[C@H]2c2ccccc2C(C)C)C3)ccc1C(=O)NS(=O)(=O)c1cnc(NC[C@H]2CC[C@](C)(O)CC2)c([N+](=O)[O-])c1 [Example 4, 4-(2-((R)-4-(3,4-difluorobenzyl)-2-(2-isopropylphenyl)piperazin-1-yl)-7-azaspiro[3.5]nonan-7-yl)-2-((6-ethoxy-3-fluoro-1H-pyrrolo[2,3-b]pyridin-5-yl)oxy)-N-((6-((((1r,4r)-4-hydroxy-4-methylcyclohexyl)methyl)amino)-5-nitropyridin-3-yl)sulfonyl)benzamide] | 1 | 1 |  |  |  |  | 1 | 1740 | 9.57 | 176
4 | CC(C)c1ccccc1[C@@H]1CN(Cc2ccc3c(c2)CCO3)CCN1C1CC2(CCN(c3ccc(C(=O)NS(=O)(=O)c4cnc(NC[C@H]5CC[C@](C)(O)CC5)c([N+](=O)[O-])c4)c(Oc4cnc5[nH]cc(F)c5c4)c3)CC2)C1 [Example 324, 4-(2-((R)-4-((2,3-dihydrobenzofuran-5-yl)methyl)-2-(2-isopropylphenyl)piperazin-1-yl)-7-azaspiro[3.5]nonan-7-yl)-2-((3-fluoro-1H-pyrrolo[2,3-b]pyridin-5-yl)oxy)-N-((6-((((1r,4r)-4-hydroxy-4-methylcyclohexyl)methyl)amino)-5-nitropyridin-3-yl)sulfonyl)benzamide] | 1 | 1 | 1 |  |  |  | 1 |  |  | 
5 | COc1nc(CN2CCN(C3CC4(CCN(c5ccc(C(=O)NS(=O)(=O)c6cnc(NC[C@H]7CC[C@](C)(O)CC7)c([N+](=O)[O-])c6)c(Oc6cnc7[nH]cc(F)c7c6)c5)CC4)C3)[C@H](c3ccccc3C(C)C)C2)ccc1C1CC1 [Example 291, 4-(2-((R)-4-((5-cyclopropyl-6-methoxypyridin-2-yl)methyl)-2-(2-isopropylphenyl)piperazin-1-yl)-7-azaspiro[3.5]nonan-7-yl)-2-((3-fluoro-1H-pyrrolo[2,3-b]pyridin-5-yl)oxy)-N-((6-((((1r,4r)-4-hydroxy-4-methylcyclohexyl)methyl)amino)-5-nitropyridin-3-yl)sulfonyl)benzamide] |  | 1 | 1 |  |  |  | 1 |  |  | 
6 | COc1nc2[nH]cc(F)c2cc1Oc1cc(N2CCC3(CC2)CC(N2CCN(C[C@@H]4COCCO4)C[C@H]2c2ccccc2C(C)C)C3)ccc1C(=O)NS(=O)(=O)c1cnc(NC[C@H]2CC[C@](C)(O)CC2)c([N+](=O)[O-])c1 [Example 334, 4-(2-((R)-4-(((R)-1,4-dioxan-2-yl)methyl)-2-(2-isopropylphenyl)piperazin-1-yl)-7-azaspiro[3.5]nonan-7-yl)-2-((3-fluoro-6-methoxy-1H-pyrrolo[2,3-b]pyridin-5-yl)oxy)-N-((6-((((1r,4r)-4-hydroxy-4-methylcyclohexyl)methyl)amino)-5-nitropyridin-3-yl)sulfonyl)benzamide] | 1 | 1 | 1 |  |  |  | 1 |  |  | 
7 | COc1nc2[nH]cc(F)c2cc1Oc1cc(N2CCC3(CC2)CC(N2CCN(Cc4ccc(OC)c5oc(C)nc45)C[C@H]2c2ccccc2C(C)C)C3)ccc1C(=O)NS(=O)(=O)c1cnc(NC[C@H]2CC[C@](C)(O)CC2)c([N+](=O)[O-])c1 [Example 245, 2-((3-fluoro-6-methoxy-1H-pyrrolo[2,3-b]pyridin-5-yl)oxy)-N-((6-((((1r,4r)-4-hydroxy-4-methylcyclohexyl)methyl)amino)-5-nitropyridin-3-yl)sulfonyl)-4-(2-((R)-2-(2-isopropylphenyl)-4-((7-methoxy-2-methylbenzo[d]oxazol-4-yl)methyl)piperazin-1-yl)-7-azaspiro[3.5]nonan-7-yl)benzamide] | 1 | 1 | 1 |  |  |  | 1 |  |  | 

More lines, main results first:

Row | IC50 (RS4;11-BCL-2 G101V cells) [nM] | IC50 (RS4;11-BCL-2 F104L cells) [nM] | IC50 (RS4;11-BCL-2 D103E cells) [nM] | AUClast [1] [ng·h/mL] | Cmax/C0 [1] [ng/mL] | T1/2 [1] [h] | Compound | IC50 (Toledo cells) [nM] | AUC(0-t) [1] [ng·h/mL] | half-life [1] [h] | Cmax [1] [ng/mL]
8 | 1 | 1 | 3 |  |  |  | CC(C)c1ccccc1[C@@H]1CN(Cc2ccncc2)CCN1C1CC2(CCN(c3ccc(C(=O)NS(=O)(=O)c4cnc(NC[C@H]5CC[C@](C)(O)CC5)c([N+](=O)[O-])c4)c(Oc4cnc5[nH]cc(F)c5c4)c3)CC2)C1 [Example 240, 2-((3-fluoro-1H-pyrrolo[2,3-b]pyridin-5-yl)oxy)-N-((6-((((1r,4r)-4-hydroxy-4-methylcyclohexyl)methyl)amino)-5-nitropyridin-3-yl)sulfonyl)-4-(2-((R)-2-(2-isopropylphenyl)-4-(pyridin-4-ylmethyl)piperazin-1-yl)-7-azaspiro[3.5]nonan-7-yl)benzamide] | 1 |  |  | 
9 | 1 | 1 | 1 |  |  |  | COc1ccc(CN2CCN(C3CC4(CCN(c5ccc(C(=O)NS(=O)(=O)c6cnc(NC[C@H]7CC[C@](C)(O)CC7)c([N+](=O)[O-])c6)c(Oc6cnc7[nH]cc(F)c7c6)c5)CC4)C3)[C@H](c3ccccc3C(C)C)C2)cc1 [Example 71, 2-((3-fluoro-1H-pyrrolo[2,3-b]pyridin-5-yl)oxy)-N-((6-((((1r,4r)-4-hydroxy-4-methylcyclohexyl)methyl)amino)-5-nitropyridin-3-yl)sulfonyl)-4-(2-((R)-2-(2-isopropylphenyl)-4-(4-methoxybenzyl)piperazin-1-yl)-7-azaspiro[3.5]nonan-7-yl)benzamide] | 1 |  |  | 
10 |  |  |  | 128 | 49.9 | 1.16 | CC(C)c1ccccc1[C@@H]1CN(C)CCN1C1CC2(CCN(c3ccc(C(=O)NS(=O)(=O)c4cnc(NCC5CCC(C)(O)CC5)c([N+](=O)[O-])c4)c(Oc4cnc5[nH]ccc5c4)c3)CC2)C1 (stereo partly drawn) [Reference Compound 1, (R)-2-((1H-pyrrolo[2,3-b]pyridin-5-yl)oxy)-N-((6-(((4-hydroxy-4-methylcyclohexyl)methyl)amino)-S-nitropyridin-3-yl)sulfonyl)-4-(2-(2-(2-isopropylphenyl)-4-methylpiperazin-1-yl)-7-azaspiro[3.5]nonan-7-yl)benzamide, reference compound] |  |  |  | 
11 | 1 | 1 | 1 |  |  |  | CC(C)c1ccccc1[C@@H]1CN(Cc2ccc(C#N)cc2)CCN1C1CC2(CCN(c3ccc(C(=O)NS(=O)(=O)c4cnc(NC[C@H]5CC[C@](C)(O)CC5)c([N+](=O)[O-])c4)c(Oc4cnc5[nH]cc(F)c5c4)c3)CC2)C1 [Example 237, 4-(2-((R)-4-(4-cyanobenzyl)-2-(2-isopropylphenyl)piperazin-1-yl)-7-azaspiro[3.5]nonan-7-yl)-2-((3-fluoro-1H-pyrrolo[2,3-b]pyridin-5-yl)oxy)-N-((6-((((1r,4r)-4-hydroxy-4-methylcyclohexyl)methyl)amino)-5-nitropyridin-3-yl)sulfonyl)benzamide] | 1 |  |  | 
